From a compilation of properties of binary mixtures (doi:10.1016/j.electacta.2009.09.024)

Assay: xn = mol fraction of the nth substance listed
Details: 100 kPa, x2 = 0.25

O=S(=O)([N-]S(=O)(=O)C(F)(F)F)C(F)(F)F.[Rb+] + O=S(=O)([N-]S(=O)(=O)C(F)(F)F)C(F)(F)F.[Li+]
Details | electrical conductivity [S/m] | viscosity [mPa·s]
442.2 K | 0.822 | –
442.5 K | – | 63.2
452.2 K | 1.05 | –
462.7 K | 1.28 | –
473.7 K | 1.52 | –
473.9 K | – | 28.1
482.9 K | 1.86 | –
492.3 K | 2.15 | –
492.6 K | – | 17.9
502.4 K | 2.48 | –
502.5 K | – | 14.3
512.8 K | – | 11.8
523.1 K | 3.2 | –
543.3 K | 4.03 | –
543.5 K | – | 7.21
551.9 K | 4.33 | –
552.5 K | – | 6.61
561.2 K | 4.79 | –
561.8 K | – | 5.8
571.1 K | 5.08 | –
